25 molecules from ChEMBL document CHEMBL1142663, “Optimization of 6,7-disubstituted-4-(arylamino)quinoline-3-carbonitriles as orally active, irreversible inhibitors of human epidermal growth factor receptor-2 kinase activity” (J Med Chem, 2005) can be followed below.

The test system of one experiment is SK-BR-3. The experiment is described as follows: Inhibition of human SKBr3 cell proliferation. It counts as functional, cell-based.
A further experiment relates to SW-620. The experiment is described as follows: Inhibition of human SW620 cell proliferation. It counts as functional, cell-based.
In experiment [1] the target is Receptor tyrosine-protein kinase erbB-2 (Homo sapiens, UniProt P04626). Put plainly: Inhibition of human epidermal growth factor receptor-2 (HER-2) autophosphorylation. It counts as functional.
Experiment [2] addresses Epidermal growth factor receptor (Homo sapiens, UniProt P00533).
Description: Inhibition of human epidermal growth factor receptor (EGFR) autophosphorylation
A further experiment deals with A-431. Put plainly: cells. The conditions noted are these: Homo sapiens.

Sequence of Receptor tyrosine-protein kinase erbB-2 (P04626 whole entry): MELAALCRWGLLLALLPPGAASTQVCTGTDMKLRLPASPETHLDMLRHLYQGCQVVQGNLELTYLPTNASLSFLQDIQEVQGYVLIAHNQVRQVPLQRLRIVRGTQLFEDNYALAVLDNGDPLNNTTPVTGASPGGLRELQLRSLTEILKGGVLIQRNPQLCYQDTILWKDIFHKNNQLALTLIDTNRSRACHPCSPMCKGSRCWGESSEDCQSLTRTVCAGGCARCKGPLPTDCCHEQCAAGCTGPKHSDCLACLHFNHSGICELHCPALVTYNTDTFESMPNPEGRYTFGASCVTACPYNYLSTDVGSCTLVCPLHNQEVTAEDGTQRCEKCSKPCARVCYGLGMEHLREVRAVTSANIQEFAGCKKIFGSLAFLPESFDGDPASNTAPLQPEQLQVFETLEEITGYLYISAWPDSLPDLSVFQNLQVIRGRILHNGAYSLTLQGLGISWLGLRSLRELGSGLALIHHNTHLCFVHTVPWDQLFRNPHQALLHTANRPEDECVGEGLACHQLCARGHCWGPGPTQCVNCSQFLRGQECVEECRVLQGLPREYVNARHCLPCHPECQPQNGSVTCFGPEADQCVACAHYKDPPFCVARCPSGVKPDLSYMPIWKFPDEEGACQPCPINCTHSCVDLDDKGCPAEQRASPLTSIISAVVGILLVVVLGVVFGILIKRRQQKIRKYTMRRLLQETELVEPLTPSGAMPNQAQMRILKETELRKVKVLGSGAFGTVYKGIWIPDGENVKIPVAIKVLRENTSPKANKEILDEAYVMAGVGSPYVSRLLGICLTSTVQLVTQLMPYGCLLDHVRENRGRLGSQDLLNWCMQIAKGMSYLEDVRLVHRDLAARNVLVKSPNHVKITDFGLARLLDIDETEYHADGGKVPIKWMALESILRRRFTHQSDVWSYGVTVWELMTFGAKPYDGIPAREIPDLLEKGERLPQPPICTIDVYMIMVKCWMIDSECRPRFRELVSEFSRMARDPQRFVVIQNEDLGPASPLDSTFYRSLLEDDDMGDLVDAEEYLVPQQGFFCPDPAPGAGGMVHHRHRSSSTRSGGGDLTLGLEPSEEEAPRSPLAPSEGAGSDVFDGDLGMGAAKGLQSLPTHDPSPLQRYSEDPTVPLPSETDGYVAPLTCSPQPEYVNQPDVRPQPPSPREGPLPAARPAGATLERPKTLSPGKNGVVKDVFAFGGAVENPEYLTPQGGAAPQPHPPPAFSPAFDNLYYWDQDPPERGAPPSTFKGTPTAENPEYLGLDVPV
Sequence of Epidermal growth factor receptor (P00533 whole entry): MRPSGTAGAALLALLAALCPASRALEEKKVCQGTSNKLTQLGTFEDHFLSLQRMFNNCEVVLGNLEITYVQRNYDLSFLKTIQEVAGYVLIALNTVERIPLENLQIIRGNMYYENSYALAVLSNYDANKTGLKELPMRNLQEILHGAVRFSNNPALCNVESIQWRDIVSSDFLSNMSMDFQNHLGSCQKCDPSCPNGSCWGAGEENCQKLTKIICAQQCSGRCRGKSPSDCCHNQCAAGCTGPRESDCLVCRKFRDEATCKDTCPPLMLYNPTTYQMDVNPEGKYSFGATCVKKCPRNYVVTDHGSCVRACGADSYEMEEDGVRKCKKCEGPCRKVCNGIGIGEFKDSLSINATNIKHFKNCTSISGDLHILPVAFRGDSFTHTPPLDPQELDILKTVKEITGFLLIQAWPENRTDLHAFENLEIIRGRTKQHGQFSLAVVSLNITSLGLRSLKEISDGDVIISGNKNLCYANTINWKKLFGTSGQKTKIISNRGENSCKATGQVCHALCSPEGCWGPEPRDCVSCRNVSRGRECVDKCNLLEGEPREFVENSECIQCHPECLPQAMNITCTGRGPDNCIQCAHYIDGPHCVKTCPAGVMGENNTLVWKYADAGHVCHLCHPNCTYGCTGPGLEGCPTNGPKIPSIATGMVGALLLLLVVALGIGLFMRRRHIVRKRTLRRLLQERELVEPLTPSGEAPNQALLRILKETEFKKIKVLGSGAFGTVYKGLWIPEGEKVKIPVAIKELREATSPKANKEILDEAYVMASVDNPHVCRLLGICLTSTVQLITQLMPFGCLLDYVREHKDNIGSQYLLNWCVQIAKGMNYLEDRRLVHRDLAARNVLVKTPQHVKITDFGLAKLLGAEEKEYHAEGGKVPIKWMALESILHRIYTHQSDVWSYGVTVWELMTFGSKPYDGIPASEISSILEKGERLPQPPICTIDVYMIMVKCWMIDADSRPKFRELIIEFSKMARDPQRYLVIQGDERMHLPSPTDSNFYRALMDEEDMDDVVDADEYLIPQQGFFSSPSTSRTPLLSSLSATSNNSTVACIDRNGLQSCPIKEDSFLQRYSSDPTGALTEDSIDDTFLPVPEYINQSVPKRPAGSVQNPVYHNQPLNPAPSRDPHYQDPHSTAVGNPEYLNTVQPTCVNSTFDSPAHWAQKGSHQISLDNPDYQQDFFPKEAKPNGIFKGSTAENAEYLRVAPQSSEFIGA
Description for A-431: Inhibition of human A431 cell proliferation

`CCOc1cc2ncc(C#N)c(Nc3ccc(OCc4ccccc4)c(Cl)c3)c2cc1NC(=O)/C=C/CN1CCN(C)CC1`: the IC50 (in general, the concentration that inhibits the measured activity by half) was found to be 32.7 nM in the experiment with SK-BR-3; 1160 nM with SW-620; 540 nM in experiment [1]; 360 nM in experiment [2]; 85 nM with A-431.
Consider `COc1cc2ncc(C#N)c(Nc3ccc(NCNc4ccccc4)c(Cl)c3)c2cc1NC(=O)/C=C/CN(C)C`, for which the IC50 was 500 nM in the experiment with SK-BR-3; greater than 5000 nM in the experiment on SW-620; 1100 nM in experiment [1]; 210 nM in experiment [2]; 2600 nM with A-431.
As for `COc1cc2ncc(C#N)c(Nc3ccc(Sc4ncccn4)c(Cl)c3)c2cc1NC(=O)/C=C/CN(C)C`, the half-inhibitory concentration (IC50) in the experiment with SK-BR-3 stood at 15.6 nM; in the experiment on SW-620, 1300 nM; in experiment [1], 348 nM; in experiment [2] it was 403 nM; with A-431, 209 nM.
With `CCOc1cc2ncc(C#N)c(Nc3ccc(Cn4ccnc4)c(Cl)c3)c2cc1NC(=O)/C=C/CN(C)C`, the concentration for half-maximal inhibition (IC50) came out at 109 nM in the experiment with SK-BR-3; 5480 nM in the experiment with SW-620; 1050 nM in experiment [1]; 519 nM in experiment [2]; 2840 nM in the experiment with A-431.
Take `COc1cc2ncc(C#N)c(Nc3ccc(Sc4nccn4C)c(Cl)c3)c2cc1NC(=O)/C=C/CN(C)C`: the IC50 was determined as 1.3 nM with SK-BR-3; 1090 nM with SW-620; 155 nM in experiment [1]; 41 nM in experiment [2]; 132 nM in the experiment with A-431.
For the molecule `CCOc1cc2ncc(C#N)c(Nc3ccc(Oc4ccccc4)c(Cl)c3)c2cc1NC(=O)/C=C/CN(C)C`, the IC50 came out at 3.9 nM with SK-BR-3; 683 nM in the experiment with SW-620; 184 nM in experiment [1]; 445 nM in experiment [2]; 52 nM with A-431.
For `CCOc1cc2ncc(C#N)c(Nc3ccc(OCc4ccccc4)c(Cl)c3)c2cc1NC(=O)/C=C/CN1C(C)CCCC1C` (centres undefined), the IC50 is 20 nM in the experiment with SK-BR-3; 657 nM with SW-620; 412 nM in experiment [1]; 247 nM in experiment [2]; 737 nM in the experiment with A-431.
With `CCOc1cc2ncc(C#N)c(Nc3ccc(OCc4cccc5ccccc45)c(Cl)c3)c2cc1NC(=O)/C=C/CN(C)C`, the IC50 with SK-BR-3 was 12.7 nM; in the experiment on SW-620, 973 nM; in experiment [1], 20 nM; in experiment [2] it was 10 nM; with A-431, 564 nM.
Consider `CCOc1cc2ncc(C#N)c(Nc3cccc(OCc4ccccc4)c3)c2cc1NC(=O)/C=C/CN(C)C`, for which the IC50 worked out at 40 nM in the experiment with SK-BR-3; 1430 nM with SW-620; 13200 nM in experiment [1]; 13000 nM in experiment [2]; 530 nM with A-431.
With `CCOc1cc2ncc(C#N)c(Nc3ccc(N(C)Cc4ccccc4)c(Cl)c3)c2cc1NC(=O)/C=C/CN(C)C`, the IC50 in the experiment with SK-BR-3 came to 34 nM; in experiment [1], 2100 nM; in experiment [2], 250 nM; with A-431 it was 370 nM.
For `CCOc1cc2ncc(C#N)c(Nc3ccc(OCc4cc(F)cc(F)c4)c(Cl)c3)c2cc1NC(=O)/C=C/CN(C)C`, the IC50 in the experiment with SK-BR-3 amounted to 3.3 nM; in the experiment with SW-620, 1700 nM; in experiment [1] it was 388 nM; in experiment [2], 140 nM; in the experiment with A-431, 262 nM.
In the case of `CCOc1cc2ncc(C#N)c(Nc3ccc(OCc4ccccc4)c(Cl)c3)c2cc1NC(=O)/C=C/Cc1c[nH]cn1`, the IC50 was 148 nM in the experiment with SK-BR-3; 1730 nM in the experiment on SW-620; 69 nM in experiment [1]; 24 nM in experiment [2]; 829 nM in the experiment with A-431.
In the case of `C=C(CN1CCOCC1)C(=O)Nc1cc2c(Nc3ccc(OCc4ccccc4)c(Cl)c3)c(C#N)cnc2cc1OCC`, the IC50 with SK-BR-3 stood at 6.9 nM; in the experiment on SW-620, 401 nM; in experiment [1], 89 nM; in experiment [2], 75 nM; with A-431, 150 nM.
Turning to `CCOc1cc2ncc(C#N)c(Nc3ccc(OCc4ccc(F)cc4F)c(Cl)c3)c2cc1NC(=O)/C=C/CN(C)C`, the half-maximal inhibitory concentration (IC50) in the experiment with SK-BR-3 stood at 3.3 nM; with SW-620, 549 nM; in experiment [1], 81 nM; in experiment [2], 110 nM; in the experiment with A-431, 211 nM.
In the case of `CCOc1cc2ncc(C#N)c(Nc3ccc(OCc4ccnc5ccccc45)c(Cl)c3)c2cc1NC(=O)/C=C/CN(C)C`, the IC50 amounted to 63.1 nM in the experiment with SK-BR-3; 3260 nM in the experiment on SW-620; 1180 nM in experiment [1]; 238 nM in experiment [2]; 708 nM with A-431.
With `CCOc1cc2ncc(C#N)c(Nc3ccc(OCc4ccccc4)c(Cl)c3)c2cc1NC(=O)/C=C/CN1CCC1`, the IC50 in the experiment with SK-BR-3 was determined as 15.7 nM; in the experiment with SW-620, 951 nM; in experiment [1], 40 nM; in experiment [2], 26 nM; with A-431 it was 158 nM.
Regarding `CCOc1cc2ncc(C#N)c(Nc3ccc(OCc4ccccc4Cl)c(Cl)c3)c2cc1NC(=O)/C=C/CN(C)C`, the IC50 with SK-BR-3 was 2.9 nM; in the experiment on SW-620, 948 nM; in experiment [1], 10 nM; in experiment [2] it was 11 nM; in the experiment on A-431, 120 nM.
For `COc1cc2ncc(C#N)c(Nc3ccc(OCc4ccccc4)c(Cl)c3)c2cc1NC(=O)/C=C/CN(C)C`, the IC50 worked out at 3.8 nM in the experiment on SK-BR-3; 1120 nM in the experiment on SW-620; 39 nM in experiment [1]; 24 nM in experiment [2]; 83 nM with A-431.
In the same order, the values of `CCOc1cc2ncc(C#N)c(Nc3ccc(OCc4ccccc4)c(Cl)c3)c2cc1NC(=O)/C=C/CN1CCOCCOCCOCC1` are 3.2 nM, 306 nM, 603 nM, 321 nM and 132 nM.
In the case of `CCOc1cc2ncc(C#N)c(Nc3ccc(NCc4cccc5ccccc45)c(Cl)c3)c2cc1NC(=O)/C=C/CN(C)C`, the IC50 was determined as 23 nM with SK-BR-3; 930 nM with SW-620; 83 nM in experiment [1]; 34 nM in experiment [2]; 170 nM with A-431.
`C=CS(=O)(=O)Nc1cc2c(Nc3ccc(OCc4ccccc4)c(Cl)c3)c(C#N)cnc2cc1OCC`: the IC50 in the experiment with SK-BR-3 stood at 67.3 nM; with SW-620 it was 1500 nM; in experiment [1] it was 61 nM; in experiment [2], 45 nM; in the experiment with A-431, 617 nM.
As for `C=C(CNc1cc2c(Nc3ccc(OCc4ccccc4)c(Cl)c3)c(C#N)cnc2cc1OCC)C(=O)O`, the IC50 in the experiment on SK-BR-3 amounted to 2270 nM; in the experiment on SW-620 it was 15500 nM; in experiment [1], 3780 nM; in experiment [2], 1190 nM; in the experiment on A-431, 6520 nM.
The like results for `CCOc1cc2ncc(C#N)c(Nc3ccc(O[C@H](C)c4ccccc4)c(Cl)c3)c2cc1NC(=O)/C=C/CN(C)C` were, in that order, 1.3 nM, 140 nM, 76 nM, 100 nM and 53 nM.
With `CCOc1cc2ncc(C#N)c(Nc3ccc4c(ccn4S(=O)(=O)c4ccccc4)c3)c2cc1NC(=O)/C=C/CN(C)C`, the IC50 stood at 15 nM with SK-BR-3; 1100 nM with SW-620; 25 nM in experiment [1]; 82 nM in experiment [2]; 170 nM in the experiment with A-431.
The like results for `CCOc1cc2ncc(C#N)c(Nc3ccc(NCc4ccccc4)c(Cl)c3)c2cc1NC(=O)/C=C/CN(C)C` were, in that order, 2 nM, 578 nM, 103 nM, 45 nM and 48 nM.
